Results: US11155557B2, “Pyrazolopyrimidine compounds and methods of use thereof” (Genentech, Inc., priority 2016, dated 2021)
Read-outs that look alike come from different tables or passages of the source.

Legend:
[1] = biological target: isolated recombinant JAK2 kinase domain (Homo sapiens (Human), UniProt O60674); experiment: JAK2 enzyme assay (Caliper LabChip, Ki)
Procedure: JAK Enzyme Assays were Carried Out as Follows:
The activity of the isolated recombinant JAK1 and JAK2 kinase domain was measured by monitoring phosphorylation of a peptide derived from JAK3 ([sequence] fluorescently labeled on the N-terminus with 5-carboxyfluorescein) using the Caliper LabChip R technology (Caliper Life Sciences, Hopkinton, Mass.). […] After termination of the kinase reaction, the proportion of phosphorylated product was determined as a fraction of total peptide substrate using the Caliper LabChip R 3000 according to the manufacturer's specifications.

[2] = biological target: isolated recombinant JAK1 kinase domain (Homo sapiens (Human), UniProt P23458); experiment: JAK1 enzyme assay (Caliper LabChip, Ki); format: biochemical
isolated recombinant JAK1 kinase domain, sequence (P23458 875-1153): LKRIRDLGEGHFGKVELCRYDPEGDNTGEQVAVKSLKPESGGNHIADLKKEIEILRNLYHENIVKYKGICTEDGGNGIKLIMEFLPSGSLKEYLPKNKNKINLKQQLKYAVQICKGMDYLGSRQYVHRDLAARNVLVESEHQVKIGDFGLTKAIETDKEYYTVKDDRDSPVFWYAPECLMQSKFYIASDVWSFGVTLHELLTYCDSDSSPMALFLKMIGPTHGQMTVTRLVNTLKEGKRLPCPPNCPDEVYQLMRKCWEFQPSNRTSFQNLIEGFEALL
Procedure: The activity of the isolated recombinant JAK1 and JAK2 kinase domain was measured by monitoring phosphorylation of a peptide derived from JAK3 ([…] fluorescently labeled on the N-terminus with 5-carboxyfluorescein) using the Caliper LabChip R technology (Caliper Life Sciences, Hopkinton, Mass.).

[3] = system: JAK1-dependent STAT6 phosphorylation in BEAS-2B human bronchial epithelial cells; experiment: JAK1 pathway assay: IL-13 stimulated STAT6 phosphorylation in BEAS-2B cells; format: cell-based; details: BEAS-2B cells, IL-13 stimulation, read-out: IL-13 p-STAT6 BEAS-2B IC50
How it was run: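 BEAS-2B bronchial epithelial cells plated one day before, run in complete growth medium. Phospho-STAT6 in lysates measured by MesoScale Discovery; EC50 reported.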

isolated recombinant JAK2 kinase domain, sequence (O60674 849-1124): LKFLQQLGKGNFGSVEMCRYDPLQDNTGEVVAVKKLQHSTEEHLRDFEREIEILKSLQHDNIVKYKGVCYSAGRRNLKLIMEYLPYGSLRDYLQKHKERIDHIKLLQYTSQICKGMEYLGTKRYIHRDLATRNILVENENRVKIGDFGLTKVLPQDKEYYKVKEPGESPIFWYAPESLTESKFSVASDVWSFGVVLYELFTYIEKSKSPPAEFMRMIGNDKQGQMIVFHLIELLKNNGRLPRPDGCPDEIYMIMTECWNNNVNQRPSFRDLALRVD

Row | Ki ([1]; read-out: JAK2 Ki) [pM] | Ki [2] [pM] | Ki [1] [pM] | Compound | IC50 ([3]; Homo sapiens, BEAS-2B) [pM] | IC50 [3] [pM]
1 | 1850 | 4030 |  | Cn1cc(NC(=O)c2cnn3cccnc23)c(-c2cc3sc(C(=O)N4CCNCC4)cc3cc2OC(F)F)n1 [Example 91, N-[3-[5-(difluoromethoxy)-2-(piperazine-1-carbonyl)benzothiophen-6-yl]-1-methyl-pyrazol-4-yl]pyrazolo[1,5-a]pyrimidine-3-carboxamide] | 308000 | 
2 | 200 | 220 |  | COC(=O)Cn1cc(NC(=O)c2cnn3cccnc23)c(-c2cc3sc(C(N)=O)cc3cc2OC(F)F)n1 [Example 92, methyl 2-[3-[2-carbamoyl-5-(difluoromethoxy)benzothiophen-6-yl]-4-(pyrazolo[1,5-a]pyrimidine-3-carbonylamino)pyrazol-1-yl]acetate] | 92000 | 
3 | 50 | 70 |  | CC1CNc2cc(OC(F)F)c(-c3n[nH]cc3NC(=O)c3cnn4cccnc34)cc2S1 (stereo not drawn) [Example 94, N-[3-[6-(difluoromethoxy)-2-methyl-3,4-dihydro-2H-1,4-benzothiazin-7-yl]-1H-pyrazol-4-yl]pyrazolo[1,5-a]pyrimidine-3-carboxamide] |  | 7000
4 | 120 | 120 |  | CN(C)C(=O)Cn1cc(NC(=O)c2cnn3cccnc23)c(-c2cc3c(cc2OC(F)F)NCCS3)n1 [Example 99, N-[3-[6-(difluoromethoxy)-3,4-dihydro-2H-1,4-benzothiazin-7-yl]-1-[2-(dimethylamino)-2-oxo-ethyl]pyrazol-4-yl]pyrazolo[1,5-a]pyrimidine-3-carboxamide] | 24000 | 
5 | 340 | 180 |  | CN(C)C(=O)Cn1cc(NC(=O)c2cnn3cccnc23)c(-c2cc3c(cc2OC(F)F)NCCO3)n1 [Example 100, N-[3-[6-(difluoromethoxy)-3,4-dihydro-2H-1,4-benzoxazin-7-yl]-1-[2-(dimethylamino)-2-oxo-ethyl]pyrazol-4-yl]pyrazolo[1,5-a]pyrimidine-3-carboxamide] | 39000 | 
6 | 420 | 220 |  | CN(C)C(=O)Cn1cc(NC(=O)c2cnn3cccnc23)c(-c2cc3c(cc2OC(F)F)CCO3)n1 [Example 109, N-[3-[5-(difluoromethoxy)-2,3-dihydrobenzofuran-6-yl]-1-[2-(dimethylamino)-2-oxo-ethyl]pyrazol-4-yl]pyrazolo[1,5-a]pyrimidine-3-carboxamide] | 22000 | 
7 | 50 | 80 |  | CC1(C)CNc2cc(OC(F)F)c(-c3n[nH]cc3NC(=O)c3cnn4cccnc34)cc2S1 [Example 110, N-[3-[6-(difluoromethoxy)-2,2-dimethyl-3,4-dihydro-1,4-benzothiazin-7-yl]-1H-pyrazol-4-yl]pyrazolo[1,5-a]pyrimidine-3-carboxamide] | 10000 | 
8 | 360 | 910 |  | CC1(C)COc2cc(OC(F)F)c(-c3n[nH]cc3NC(=O)c3cnn4cccnc34)cc2C1=O [Example 115, N-[3-[7-(difluoromethoxy)-3,3-dimethyl-4-oxo-chroman-6-yl]-1H-pyrazol-4-yl]pyrazolo[1,5-a]pyrimidine-3-carboxamide] | 55000 | 
9 | 400 | 250 |  | CNC(=O)Cn1cc(NC(=O)c2cnn3cccnc23)c(-c2cc3c(cc2OC(F)F)NCCO3)n1 [Example 116, N-[3-[6-(difluoromethoxy)-3,4-dihydro-2H-1,4-benzoxazin-7-yl]-1-[2-(methylamino)-2-oxo-ethyl]pyrazol-4-yl]pyrazolo[1,5-a]pyrimidine-3-carboxamide] | 42000 | 
10 | 100 | 100 |  | CNC(=O)Cn1cc(NC(=O)c2cnn3cccnc23)c(-c2cc3c(cc2OC(F)F)NCCS3)n1 [Example 117, N-[3-[6-(difluoromethoxy)-3,4-dihydro-2H-1,4-benzothiazin-7-yl]-1-[2-(methylamino)-2-oxo-ethyl]pyrazol-4-yl]pyrazolo[1,5-a]pyrimidine-3-carboxamide] | 24000 | 
11 | 230 | 680 |  | C[C@@H]1CNc2cc(OC(F)F)c(-c3n[nH]cc3NC(=O)c3cnn4cccnc34)cc2O1 [Example 118, N-[3-[(2R)-6-(difluoromethoxy)-2-methyl-3,4-dihydro-2H-1,4-benzoxazin-7-yl]-1H-pyrazol-4-yl]pyrazolo[1,5-a]pyrimidine-3-carboxamide] | 37000 | 
12 | 1930 | 1010 |  | CNC(=O)Cn1cc(NC(=O)c2cnn3cccnc23)c(-c2cc3c(cc2OC(F)F)SCCO3)n1 [Example 119, N-[3-[6-(difluoromethoxy)-2,3-dihydro-1,4-benzoxathiin-7-yl]-1-[2-(methylamino)-2-oxo-ethyl]pyrazol-4-yl]pyrazolo[1,5-a]pyrimidine-3-carboxamide] | 40000 | 
13 | 2540 | 630 |  | CN(C)C(=O)Cn1cc(NC(=O)c2cnn3cccnc23)c(-c2cc3c(cc2OC(F)F)SCCO3)n1 [Example 120, N-[3-[6-(difluoromethoxy)-2,3-dihydro-1,4-benzoxathiin-7-yl]-1-[2-(dimethylamino)-2-oxo-ethyl]pyrazol-4-yl]pyrazolo[1,5-a]pyrimidine-3-carboxamide] | 46000 | 
14 |  | 410 | 450 | CC[C@@H](O)Cn1cc(NC(=O)c2cnn3cccnc23)c(-c2cc3c(cc2OC(F)F)NCCO3)n1 [Example 121, N-[3-[6-(difluoromethoxy)-3,4-dihydro-2H-1,4-benzoxazin-7-yl]-1-[(2R)-2-hydroxybutyl]pyrazol-4-yl]pyrazolo[1,5-a]pyrimidine-3-carboxamide] | 38000 | 
15 |  | 280 | 250 | CC[C@H](O)Cn1cc(NC(=O)c2cnn3cccnc23)c(-c2cc3c(cc2OC(F)F)NCCO3)n1 [Example 122, N-[3-[6-(difluoromethoxy)-3,4-dihydro-2H-1,4-benzoxazin-7-yl]-1-[(2S)-2-hydroxybutyl]pyrazol-4-yl]pyrazolo[1,5-a]pyrimidine-3-carboxamide] | 32000 | 
16 | 280 | 360 |  | O=C(Nc1cn(Cc2ncco2)nc1-c1cc2c(cc1OC(F)F)NCCO2)c1cnn2cccnc12 [Example 123, N-[3-[6-(difluoromethoxy)-3,4-dihydro-2H-1,4-benzoxazin-7-yl]-1-(oxazol-2-ylmethyl)pyrazol-4-yl]pyrazolo[1,5-a]pyrimidine-3-carboxamide] | 24000 | 
17 | 150 | 250 |  | O=C(Nc1cn(Cc2ncco2)nc1-c1cc2c(cc1OC(F)F)NCCS2)c1cnn2cccnc12 [Example 124, N-[3-[6-(difluoromethoxy)-3,4-dihydro-2H-1,4-benzothiazin-7-yl]-1-(oxazol-2-ylmethyl)pyrazol-4-yl]pyrazolo[1,5-a]pyrimidine-3-carboxamide] | 20000 | 
18 | 60 | 120 |  | Cn1nnnc1Cn1cc(NC(=O)c2cnn3cccnc23)c(-c2cc3c(cc2OC(F)F)NCCS3)n1 [Example 127, N-[3-[6-(difluoromethoxy)-3,4-dihydro-2H-1,4-benzothiazin-7-yl]-1-[(1-methyltetrazol-5-yl)methyl]pyrazol-4-yl]pyrazolo[1,5-a]pyrimidine-3-carboxamide] | 14000 | 
19 | 90 | 140 |  | Cn1nnc(Cn2cc(NC(=O)c3cnn4cccnc34)c(-c3cc4c(cc3OC(F)F)NCCS4)n2)n1 [Example 128, N-[3-[6-(difluoromethoxy)-3,4-dihydro-2H-1,4-benzothiazin-7-yl]-1-[(2-methyltetrazol-5-yl)methyl]pyrazol-4-yl]pyrazolo[1,5-a]pyrimidine-3-carboxamide] | 7000 | 
20 | 470 | 200 |  | CN(C)C(=O)Cn1cc(NC(=O)c2cnn3cccnc23)c(-c2cc3sncc3cc2OC(F)F)n1 [Example 129, N-[3-[5-(difluoromethoxy)-1,2-benzothiazol-6-yl]-1-[2-(dimethylamino)-2-oxo-ethyl]pyrazol-4-yl]pyrazolo[1,5-a]pyrimidine-3-carboxamide] | 11000 | 
21 | 470 | 310 |  | CCN(C)C(=O)Cn1cc(NC(=O)c2cnn3cccnc23)c(-c2cc3c(cc2OC(F)F)NCCO3)n1 [Example 130, N-[3-[6-(difluoromethoxy)-3,4-dihydro-2H-1,4-benzoxazin-7-yl]-1-[2-[ethyl(methyl)amino]-2-oxo-ethyl]pyrazol-4-yl]pyrazolo[1,5-a]pyrimidine-3-carboxamide] | 59000 | 
22 | 80 | 120 |  | Cn1cc(Cn2cc(NC(=O)c3cnn4cccnc34)c(-c3cc4c(cc3OC(F)F)NCCS4)n2)nn1 [Example 131, N-[3-[6-(difluoromethoxy)-3,4-dihydro-2H-1,4-benzothiazin-7-yl]-1-[(1-methyltriazol-4-yl)methyl]pyrazol-4-yl]pyrazolo[1,5-a]pyrimidine-3-carboxamide] | 30000 | 
23 | 400 | 360 |  | O=C(Nc1cn(CC(=O)N2CCC(F)(F)C2)nc1-c1cc2c(cc1OC(F)F)NCCO2)c1cnn2cccnc12 [Example 132, N-[3-[6-(difluoromethoxy)-3,4-dihydro-2H-1,4-benzoxazin-7-yl]-1-[2-(3,3-difluoropyrrolidin-1-yl)-2-oxo-ethyl]pyrazol-4-yl]pyrazolo[1,5-a]pyrimidine-3-carboxamide] | 31000 | 
